The structures appear in SMILES notation. pKi: −log10 of the molar value.

For assay [1], the target named is Carbonic anhydrase 2 (Homo sapiens, UniProt P00918). Put plainly: Inhibition Assay. The note with it: pH 7.4; 25 °C.
The target in assay [2] is Carbonic anhydrase 7 (Homo sapiens, UniProt P43166). The assay is described as follows: Inhibition Assay. The conditions noted are these: pH 7.4; 25 °C.
Chain of Carbonic anhydrase 7 (P43166 whole entry): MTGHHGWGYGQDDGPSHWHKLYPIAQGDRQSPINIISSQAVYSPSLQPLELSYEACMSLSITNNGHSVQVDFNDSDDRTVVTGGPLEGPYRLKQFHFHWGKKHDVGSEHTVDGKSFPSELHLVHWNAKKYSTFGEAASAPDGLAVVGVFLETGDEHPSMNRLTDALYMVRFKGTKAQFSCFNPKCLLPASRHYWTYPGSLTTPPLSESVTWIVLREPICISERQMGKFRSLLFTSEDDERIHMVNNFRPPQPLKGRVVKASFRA

By pKi is commonly meant −log10 of the Ki, conventionally taken in molar units. A lower pKi goes with a high Ki. In assay [1], `NS(=O)(=O)c1ccc(I)cc1` [p-Halide-sulfanilamide derivative, 3] showed a pKi of 7.09. Regarding `COc1ccc(/N=N/c2ccc(S(=O)(=O)N(C)C)cc2)cc1` [p-Phenyldiazenyl derivative, 6], the pKi was 6.06 in assay [1] and 5.38 in assay [2].

As for `CNS(=O)(=O)c1ccc(N=Nc2ccc(O)cc2)cc1` [p-Phenyldiazenyl derivative, 8], the pKi in assay [1] was 6.56; in assay [2] it was 6.15.

For `CN(C)c1ccc(/N=N/c2ccc(S(N)(=O)=O)cc2)cc1`, the pKi in assay [2] is 7.52.

As to `NS(=O)(=O)c1ccc(Br)cc1` [p-Halide-sulfanilamide derivative, 2a], the pKi in assay [2] is 7.17. Regarding `NS(=O)(=O)c1ccc(Cl)cc1` [p-Halide-sulfanilamide derivative, 2], the pKi in assay [1] is 7.76. In assay [2], `NS(=O)(=O)c1ccc(O)cc1` [p-Hydroxy-benzene derivative, 3a] gave a pKi of 7.06. As for `CN(C)S(=O)(=O)c1ccc(N=Nc2ccc(O)cc2)cc1` [p-Phenyldiazenyl derivative, 7], the pKi was 6.51 in assay [1] and 6.12 in assay [2].

(Values after BindingDB's records for doi:10.1111/j.1747-0285.2009.00842.x (Universita Degli Studi Di Firenze, 2009).)
